Data on 12 compounds can be found in patent US6706740B2, “Fungicidal heterocyclic aromatic amides and their compositions, methods of use and preparation” (Dow AgroSciences LLC, priority 1999, dated 2004).

What is called inhibition is the relative decrease from the control value, in per cent.

Test [1] has as its system Phytophthora infestans (PHYTIN). Put plainly: microbe, parasite or virus in culture. It is filed as cell-based. The note with it: Phytophthora infestans, read-out: PHYTIN in vitro Growth Inhibition.
The subject of test [2] is Magnaporthe grisea (Pyricularia oryzae—PYRIOR). Description: microbe, parasite or virus in culture. Conditions: Pyricularia oryzae, read-out: PYRIOR in vitro Growth Inhibition. It is filed as cell-based.
Test [3] concerns Phytophthora infestans—PHYTIN. Put plainly: whole plant or invertebrate. The note with it: Phytophthora, in Solanum lycopersicum, 24 h, read-out: PHYTIN in vivo 1 Day Protectant. It is filed as in vivo.
Test [4] relates to Rhizoctonia solani (RHIZSO). Description: microbe, parasite or virus in culture. Type of test: cell-based. Conditions: Rhizoctonia solani, read-out: RHIZSO in vitro Growth Inhibition.
In test [5] the test system is Mycosphaerella graminicola (Septoria tritici—SEPTTR). Description: In vitro fungal growth inhibition, Mycosphaerella graminicola (SEPTTR). Type of test: cell-based. Conditions: Zymoseptoria tritici, read-out: SEPTTR in vitro Growth Inhibition.
In test [6] the test system is Stagonospora nodorum (Leptosphaeria nodorum—LEPTNO). Description: In vitro fungal growth inhibition, Stagonospora nodorum (LEPTNO). It is filed as cell-based. Conditions: Leptosphaeria, read-out: LEPTNO in vitro Growth Inhibition.
For a further test, the system named is Ustilago maydis (USTIMA). Put plainly: microbe, parasite or virus in culture. It is filed as cell-based. Conditions: Mycosarcoma maydis, read-out: USTIMA in vitro Growth Inhibition.
In the next test the test system is Erysiphe graminis—ERYSGT. Put plainly: Powdery Mildew of Wheat, in vivo whole plant, 24 Hour Protectant. Conditions: Erysiphe, read-out: ERYSGT in vivo 1 Day Protectant.
For test [7], the system named is Puccinia recondita—PUCCRT. Description: Brown Rust of Wheat, in vivo whole plant, 24 Hour Protectant. Conditions: for pest or weed control at 100 ppm: Puccinia, read-out: PUCCRT in vivo 1 Day Protectant.
In test [8] the test system is Leptosphaeria nodorum—LEPTNO. Description: Glume Blotch of Wheat, in vivo whole plant, 24 Hour Protectant. The note with it: for pest or weed control at 100 ppm: Leptosphaeria, read-out: LEPTNO in vivo 1 Day Protectant.
For another test, the system named is Septoria tritici—SEPTTR. Description: Leaf Blotch of Wheat, in vivo whole plant, 24 Hour Protectant. Conditions: for pest or weed control at 100 ppm: Zymoseptoria tritici, 24 h, read-out: SEPTTR in vivo 1 Day Protectant.
Where [9] appears, read: 100 ppm spray, wheat, 24 hour protectant, control of fungal infection vs untreated plants.
Setting [10] is: wheat plants sprayed at 100 ppm, inoculated after 24 hours, control of fungal infection vs untreated plants.
The mark [11] stands for this setting: 100 ppm spray, wheat, 24 hour protectant, % control of fungal infection vs untreated plants.

Like-named read-outs stand apart in the source and are kept apart here.

As for `COc1ccnc(C(=O)NC(COC(=O)CC(C)OC(=O)C(C)C)C(=O)OC(C)C)c1O` (stereo not drawn) [Compound 352], the inhibition at 25 ppm (in [1]; in test [2]; in test [4]; in test [5] (25 ppm in growth medium); in [6] (25 ppm in growth medium); in the test on Ustilago maydis (USTIMA)) was under 80% in each case. Besides, the pest or weed control at 100 ppm was under 25% in [3]; under 25% in the test on Erysiphe graminis—ERYSGT (setting [9]); 25 to 74% in test [7] (setting [9]); under 25% in test [8] (setting [9]); under 25% in the test with Septoria tritici—SEPTTR (setting [9]).

As for `COc1ccnc(C(=O)N[C@H]2COC(=O)[C@H](Cc3ccccc3)[C@@H](OC(=O)C3CC3)[C@H](C)OC2=O)c1O` [Compound 387], the inhibition at 25 ppm is under 80% in test [1]; over 80% in test [2]; over 80% in [4]; over 80% in test [5] (25 ppm in growth medium); over 80% in test [6] (25 ppm in growth medium); over 80% in the test with Ustilago maydis (USTIMA). In addition, the pest or weed control at 100 ppm in test [3] was under 25%; in the test on Erysiphe graminis—ERYSGT (setting [9]), 25 to 74%; in test [7] (setting [9]), 25 to 74%; with Septoria tritici—SEPTTR (setting [9]) it was 25 to 74%. Moreover, in [8] (setting [9]), the “LEPTNO in vivo 1 Day Protectant” value is “+ +”.

On to `COc1ccnc(C(=O)Nc2cccc(Oc3ccccc3Cl)c2)c1O` [Compound 439], for which the inhibition at 25 ppm (in test [1]; in test [2]; in test [4]; in test [5] (25 ppm in growth medium); in test [6] (25 ppm in growth medium); in the test on Ustilago maydis (USTIMA)) was under 80% throughout. Moreover, the pest or weed control at 100 ppm in test [3] is under 25%; in the test with Erysiphe graminis—ERYSGT (setting [9]) it was under 25%; in test [7] (setting [9]), 25 to 74%; in [8] (setting [9]), 25 to 74%; with Septoria tritici—SEPTTR (setting [9]), under 25%.

As to `COc1ccc(CNC(=O)c2nc(Br)ccc2O)cc1` [Compound 482], the inhibition at 25 ppm (in test [1]; in [2]; in [4]; in [5] (25 ppm in the growth medium); in test [6] (25 ppm in the growth medium); in the test on Ustilago maydis (USTIMA)) was under 80% throughout. For the same compound, the pest or weed control at 100 ppm is under 25% in test [3]; under 25% in the test on Erysiphe graminis—ERYSGT (setting [10]); under 25% in test [7] (setting [10]); 25 to 74% in test [8] (setting [10]); 25 to 74% in the test on Septoria tritici—SEPTTR (setting [10]).

Consider `COc1ccc(Oc2ccc(NC(=O)c3nccc(OC)c3O)cc2)cc1` [Compound 435], for which the inhibition at 25 ppm in test [1] is under 80%; in [2], under 80%; in test [4] it was under 80%; in test [5] (25 ppm in growth medium), over 80%; in [6] (25 ppm in growth medium), under 80%; in the test with Ustilago maydis (USTIMA), under 80%. For the same compound, the pest or weed control at 100 ppm is under 25% in test [3]; under 25% in the test with Erysiphe graminis—ERYSGT (setting [9]); under 25% in test [7] (setting [9]); 25 to 74% in [8] (setting [9]); under 25% with Septoria tritici—SEPTTR (setting [9]).

On to `COc1ccnc(C(=O)N[C@@H]2C[C@@H](O[Si](C)(C)C(C)(C)C)O[C@@H](C)[C@@H]2OCc2ccccc2)c1O` [Compound 327], for which the inhibition at 25 ppm (in [1]; in test [2]; in [4]; in test [5]; in test [6]; in the test with Ustilago maydis (USTIMA)) was under 80% in each case. For the same compound, the pest or weed control at 100 ppm in test [3] was 25 to 74%; with Erysiphe graminis—ERYSGT (setting [9]) it was under 25%; in test [7] (setting [9]), under 25%; in test [8] (setting [9]), 25 to 74%. Further, in the test with Septoria tritici—SEPTTR (setting [9]), the “SEPTTR in vivo 1 Day Protectant” value was “+ +”.

On to `COc1ccnc(C(=O)N[C@H]2COC(=O)[C@H](Cc3ccccc3)[C@@H](OC(=O)C(C)C)[C@H](C)OC2=O)c1OC(=O)CCc1ccccc1` [Compound 650], for which the inhibition at 25 ppm in test [1] is under 80%; in test [2], over 80%; in test [4], under 80%; in test [5], under 80%; in test [6], over 80%; with Ustilago maydis (USTIMA), under 80%. Further, the pest or weed control at 100 ppm (in test [3]; with Erysiphe graminis—ERYSGT (24 h)) was under 25% each time. The “PUCCRT in vivo 1 Day Protectant” value in [7] (in vivo) was “+ +”. In test [8] (in vivo), the “LEPTNO in vivo 1 Day Protectant” value is on record as “+ +”. Also, in the test with Septoria tritici—SEPTTR (in vivo), the “SEPTTR in vivo 1 Day Protectant” value is “+ +”.

As to `COc1ccnc(C(=O)NC(COC(=O)CC(C)O[Si](C)(C)C(C)(C)C)C(=O)OC(C)C)c1O` (stereo not drawn) [Compound 354], the inhibition at 25 ppm (in [1]; in [2]; in [4]; in test [5]; in [6]; with Ustilago maydis (USTIMA)) was under 80% throughout. Besides, the pest or weed control at 100 ppm was under 25% in test [3], 25 to 74% in the test on Erysiphe graminis—ERYSGT (setting [9]), under 25% in test [8] (setting [9]) and under 25% in the test with Septoria tritici—SEPTTR (setting [9]). Also, the “PUCCRT in vivo 1 Day Protectant” value in [7] (setting [9]) is recorded as “+ +”.

As to `O=C(Nc1ccc(Oc2cccc(C(F)(F)F)c2)cc1)c1nscc1O` [Compound 551], the inhibition at 25 ppm (in test [1]; in [2]; in [4]; in [5] (25 ppm in the growth medium); in test [6] (25 ppm in the growth medium); with Ustilago maydis (USTIMA)) was under 80% in each case. Besides, the pest or weed control at 100 ppm in [3] is under 25%; in the test on Erysiphe graminis—ERYSGT (setting [10]), 25 to 74%; in test [7] (setting [10]) it was under 25%; in test [8] (setting [10]), 25 to 74%; in the test on Septoria tritici—SEPTTR (setting [10]), 25 to 74%.

`CCCCCCCCCCCCCCCCCC(=O)O[C@H]1[C@H](C)OC(=O)[C@@H](NC(=O)c2nccc(OC)c2O)COC(=O)[C@@H]1Cc1ccccc1` [Compound 398]: the inhibition at 25 ppm in test [1] was under 80%; in test [2], over 80%; in [4], under 80%; in [5] (25 ppm in growth medium) it was over 80%; in test [6] (25 ppm in growth medium), over 80%; in the test on Ustilago maydis (USTIMA), under 80%. For the same compound, the pest or weed control at 100 ppm was under 25% in test [3]; under 25% in the test on Erysiphe graminis—ERYSGT (setting [9]); 25 to 74% in test [7] (setting [9]); under 25% in test [8] (setting [9]); under 25% with Septoria tritici—SEPTTR (setting [9]).

`COc1ccnc(C(=O)N[C@@H]2[C@@H](O)[C@H](O)[C@@H](CO)O[C@@H]2O)c1O` [Compound 334, N-(3-HYDROXY-4-METHOXY-2-PYRIDYLCARBONYL)-2-AMINO-2-DEOXY-alpha-D-GLUCOPYRANOSE]: the inhibition at 25 ppm (in [1]; in test [2]; in test [4]; in test [5] (25 ppm in growth medium); in [6] (25 ppm in growth medium); in the test with Ustilago maydis (USTIMA)) was under 80% in each case. Also, the pest or weed control at 100 ppm is under 25% in test [3]; under 25% in the test on Erysiphe graminis—ERYSGT (setting [9]); under 25% in test [7] (setting [9]); 25 to 74% in test [8] (setting [9]); under 25% in the test on Septoria tritici—SEPTTR (setting [9]).

Take `COc1ccnc(C(=O)N[C@H]2COC(=O)[C@H](Cc3ccccc3)[C@@H](OC(=O)C(C)C)[C@H](C)OC2=O)c1OC(=O)C1CCCCC1` [Compound 612]: the inhibition at 25 ppm in test [1] is under 80%; in test [2], under 80%; in [4] it was under 80%; in [5] (25 ppm in growth medium), under 80%; in test [6] (25 ppm in growth medium), over 80%; with Ustilago maydis (USTIMA), under 80%. Further, the pest or weed control at 100 ppm (in test [3]; with Erysiphe graminis—ERYSGT (setting [11])) was under 25% in each case. Besides, the “PUCCRT in vivo 1 Day Protectant” value in test [7] (setting [11]) is recorded as “+ +”. For the same compound, the “LEPTNO in vivo 1 Day Protectant” value in test [8] (setting [11]) is “+ +”. Also, the “SEPTTR in vivo 1 Day Protectant” value in the test on Septoria tritici—SEPTTR (setting [11]) is on record as “+ +”.
